# Measurements: the supplement of paper PMC10307832
# Assays:
# Assay in all cases: relative viability (nuclei count vs DMSO), 5 days (fraction); higher = more cells survive
# Quizartinib + Alpelisib = compound: CC(C)(C)c1cc(NC(=O)Nc2ccc(-c3cn4c(n3)sc3cc(OCCN5CCOCC5)ccc34)cc2)no1 [Quizartinib] + Cc1nc(NC(=O)N2CCC[C@H]2C(N)=O)sc1-c1ccnc(C(C)(C)C(F)(F)F)c1 [Alpelisib] (partner 2 µM)
# Method in brief: (§1)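 Nuclei were stained with Hoechst during a one-step fixation (final 0.05% Triton X-100, 1% formaldehyde, 1 ug/ml Hoechst) carried out 5 days after dosing, then counted on 4× images. The cells, lung cancer lines in 1536-well plates, had been dosed by pin tool the day after seeding with one drug alone or a fixed anchor-drug dose plus five library-drug doses (not always all listed) in √10 steps. Relative viability is the nuclei count in treated wells divided by that in vehicle wells, and each value is the median of duplicate plates.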
# Quizartinib + Dasatinib = compound: CC(C)(C)c1cc(NC(=O)Nc2ccc(-c3cn4c(n3)sc3cc(OCCN5CCOCC5)ccc34)cc2)no1 [Quizartinib] + Cc1nc(Nc2ncc(C(=O)Nc3c(C)cccc3Cl)s2)cc(N2CCN(CCO)CC2)n1 [Dasatinib] (partner 0.075 µM)
# Method in brief: as §1
# YM155 + Foretinib = compound: COCC[n+]1c2c(n(Cc3cnccn3)c1C)C(=O)c1ccccc1C2=O [YM155] + COc1cc2c(Oc3ccc(NC(=O)C4(C(=O)Nc5ccc(F)cc5)CC4)cc3F)ccnc2cc1OCCCN1CCOCC1 [Foretinib] (partner 0.25 µM)
# Method in brief: as §1
# YM155 + Phenformin = compound: COCC[n+]1c2c(n(Cc3cnccn3)c1C)C(=O)c1ccccc1C2=O [YM155] + N=C(N)NC(=N)NCCc1ccccc1 [Phenformin] (partner 250 µM)
# Method in brief: as §1
Cell Line,relative viability (Quizartinib + Alpelisib; first compound 0.001 µM),relative viability (Quizartinib + Alpelisib; first compound 0.003162 µM),relative viability (Quizartinib + Alpelisib; first compound 0.01 µM),relative viability (Quizartinib + Alpelisib; first compound 0.03162 µM),relative viability (Quizartinib + Alpelisib; first compound 0.1 µM),relative viability (Quizartinib + Dasatinib; first compound 0.001 µM),relative viability (Quizartinib + Dasatinib; first compound 0.003162 µM),relative viability (Quizartinib + Dasatinib; first compound 0.01 µM),relative viability (Quizartinib + Dasatinib; first compound 0.03162 µM),relative viability (Quizartinib + Dasatinib; first compound 0.1 µM),relative viability (YM155 + Foretinib; first compound 0.002 µM),relative viability (YM155 + Foretinib; first compound 0.006325 µM),relative viability (YM155 + Foretinib; first compound 0.02 µM),relative viability (YM155 + Foretinib; first compound 0.06325 µM),relative viability (YM155 + Phenformin; first compound 0.002 µM),relative viability (YM155 + Phenformin; first compound 0.006325 µM),relative viability (YM155 + Phenformin; first compound 0.02 µM),relative viability (YM155 + Phenformin; first compound 0.06325 µM)
LU99A,0.448,0.512,0.627,0.517,0.431,0.419,0.592,0.523,0.467,0.135,0.806,0.866,0.905,0.884,0.856,0.883,0.822,0.847
EKVX,0.799,0.841,0.924,0.914,0.973,,0.588,0.514,0.56,0.602,0.858,0.757,1.32,0.69,0.239,0.218,0.24,0.231
LC-2-ad,0.775,0.837,0.952,0.9,0.592,0.48,0.799,0.546,,0.5,0.923,0.967,0.884,0.666,0.528,0.616,0.581,0.535
EBC-1,0.664,0.708,0.89,0.915,0.812,,,,,,0.0935,0.0954,0.0823,0.089,,,,
PC-14,0.854,0.903,1.03,0.877,0.89,0.262,0.238,0.321,,0.254,0.83,0.911,0.908,1.02,0.485,0.708,0.668,0.554
NCI-H1395,1.05,1.01,1.21,1.06,0.995,0.384,0.418,0.388,0.421,0.413,0.943,0.91,0.984,1.01,0.419,0.465,0.453,0.481
NCI-H2405,0.579,0.748,0.847,0.733,0.978,0.266,0.198,0.216,0.202,0.244,1.04,1.03,0.936,0.64,0.383,0.39,0.423,0.404
SW 900,,,,,,0.557,0.294,,0.563,0.616,0.874,0.622,1.15,0.905,0.638,0.642,0.674,0.69
NCI-H2009,1.14,1.01,1.19,1.09,1.13,0.283,0.29,0.252,0.326,0.26,1.24,1.21,1.09,0.583,0.464,0.489,0.46,0.326
EPLC-272H,0.667,1.04,0.95,0.969,1.06,0.326,0.366,0.4,0.38,0.377,0.694,0.71,0.849,0.735,0.347,0.317,0.286,0.304
LCLC-103H,1.01,0.533,0.94,1.04,0.943,0.461,0.454,0.402,0.557,0.487,0.802,0.722,0.815,0.839,0.359,0.314,0.347,0.323
NCI-H1650,,,,,,0.283,0.328,0.298,,0.245,1.07,1.11,0.932,0.57,0.356,0.412,0.484,0.557
SW 1573,0.779,0.728,0.836,0.686,0.793,0.417,0.481,0.561,,0.76,0.986,0.974,0.92,0.877,0.365,0.305,0.394,0.338
NCI-H1703,0.34,0.196,0.209,0.182,0.22,,,,,,0.309,0.355,0.381,0.276,,,,
NCI-H2087,1.05,0.98,1.19,1.14,0.836,,0.699,0.863,0.626,0.979,1.17,0.968,1.07,0.869,0.476,0.448,0.498,0.495
Calu-6,0.92,0.915,1,0.761,0.947,,,,,,0.882,0.845,0.727,0.0962,,,,
NCI-H2342,,,,,,0.31,0.314,0.308,0.285,0.316,1,1.14,1.14,1.03,0.581,0.612,0.584,0.65
NCI-H522,,,,,,0.861,0.861,1.11,0.794,0.882,,,,,0.67,0.604,0.628,0.659
NCI-H1792,0.799,0.667,0.711,0.499,0.703,,0.742,0.84,0.658,0.836,,,,,,,0.285,0.523
HCC-44,0.798,0.78,0.864,0.825,0.638,,,,,,,,,,0.132,0.283,0.248,0.202
A549,0.661,0.763,0.849,,0.833,,,,,,0.923,0.932,1.1,0.624,0.17,0.0769,0.177,0.137
NCI-H1623,,,,,,0.502,0.627,0.507,0.623,0.598,0.89,0.865,0.987,0.872,0.599,0.6,0.643,0.604
